Test results taken from ChEMBL document CHEMBL1201862, “PubChem BioAssay data set” (2004).
Active and inactive are the calls of the source.

What was measured:
[1] = biological target: Neurotensin receptor type 1 (Homo sapiens, UniProt P30989); assay type: functional;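 also: Image-based confirmatory dose-response assay measuring agonist activity at NTR1; NTR1-expressing U2OS osteosarcoma cells imaged for beta-arrestin GFP spot formation; agonist potency where compounds increase beta-arrestin recruitment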
Chain of Neurotensin receptor type 1 (P30989 whole entry): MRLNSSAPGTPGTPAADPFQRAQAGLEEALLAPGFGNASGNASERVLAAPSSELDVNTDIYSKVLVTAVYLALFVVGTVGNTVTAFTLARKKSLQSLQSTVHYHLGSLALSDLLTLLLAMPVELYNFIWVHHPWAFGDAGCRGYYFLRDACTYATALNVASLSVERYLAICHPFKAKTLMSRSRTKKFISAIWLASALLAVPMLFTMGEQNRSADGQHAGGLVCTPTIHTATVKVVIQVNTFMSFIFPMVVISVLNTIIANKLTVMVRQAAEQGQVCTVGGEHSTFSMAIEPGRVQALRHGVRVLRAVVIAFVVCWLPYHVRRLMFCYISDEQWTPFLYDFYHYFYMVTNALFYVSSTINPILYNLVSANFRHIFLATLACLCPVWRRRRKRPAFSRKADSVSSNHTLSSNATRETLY

[2] = biological target: T1, Bcl-2-like protein 10 (Homo sapiens, UniProt Q9HD36); experiment: Bcl-B/TR3 peptide binding disruption – biochemical, fluorescence polarization, FITC-TR3 peptide, selectivity assay for Bfl-1 inhibitor project, primary screen (AID 748);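 also: fluorescence polarization from a fluorescein-labelled TR3 peptide binding purified Bcl-B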
T1 sequence (Q9HD36 whole entry): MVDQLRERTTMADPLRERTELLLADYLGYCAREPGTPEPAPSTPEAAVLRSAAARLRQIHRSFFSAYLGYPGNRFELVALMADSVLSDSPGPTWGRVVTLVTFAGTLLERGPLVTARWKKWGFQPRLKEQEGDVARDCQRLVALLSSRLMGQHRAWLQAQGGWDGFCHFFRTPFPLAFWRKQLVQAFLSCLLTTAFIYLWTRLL

[3] = biological target: T2, Voltage-gated N-type calcium channel alpha-1B subunit/Amyloid beta A4 precursor protein-binding family A member 1 (Homo sapiens, UniProt Q00975+Q02410); assay type: protein assay
T2 sequence (Q00975 whole entry): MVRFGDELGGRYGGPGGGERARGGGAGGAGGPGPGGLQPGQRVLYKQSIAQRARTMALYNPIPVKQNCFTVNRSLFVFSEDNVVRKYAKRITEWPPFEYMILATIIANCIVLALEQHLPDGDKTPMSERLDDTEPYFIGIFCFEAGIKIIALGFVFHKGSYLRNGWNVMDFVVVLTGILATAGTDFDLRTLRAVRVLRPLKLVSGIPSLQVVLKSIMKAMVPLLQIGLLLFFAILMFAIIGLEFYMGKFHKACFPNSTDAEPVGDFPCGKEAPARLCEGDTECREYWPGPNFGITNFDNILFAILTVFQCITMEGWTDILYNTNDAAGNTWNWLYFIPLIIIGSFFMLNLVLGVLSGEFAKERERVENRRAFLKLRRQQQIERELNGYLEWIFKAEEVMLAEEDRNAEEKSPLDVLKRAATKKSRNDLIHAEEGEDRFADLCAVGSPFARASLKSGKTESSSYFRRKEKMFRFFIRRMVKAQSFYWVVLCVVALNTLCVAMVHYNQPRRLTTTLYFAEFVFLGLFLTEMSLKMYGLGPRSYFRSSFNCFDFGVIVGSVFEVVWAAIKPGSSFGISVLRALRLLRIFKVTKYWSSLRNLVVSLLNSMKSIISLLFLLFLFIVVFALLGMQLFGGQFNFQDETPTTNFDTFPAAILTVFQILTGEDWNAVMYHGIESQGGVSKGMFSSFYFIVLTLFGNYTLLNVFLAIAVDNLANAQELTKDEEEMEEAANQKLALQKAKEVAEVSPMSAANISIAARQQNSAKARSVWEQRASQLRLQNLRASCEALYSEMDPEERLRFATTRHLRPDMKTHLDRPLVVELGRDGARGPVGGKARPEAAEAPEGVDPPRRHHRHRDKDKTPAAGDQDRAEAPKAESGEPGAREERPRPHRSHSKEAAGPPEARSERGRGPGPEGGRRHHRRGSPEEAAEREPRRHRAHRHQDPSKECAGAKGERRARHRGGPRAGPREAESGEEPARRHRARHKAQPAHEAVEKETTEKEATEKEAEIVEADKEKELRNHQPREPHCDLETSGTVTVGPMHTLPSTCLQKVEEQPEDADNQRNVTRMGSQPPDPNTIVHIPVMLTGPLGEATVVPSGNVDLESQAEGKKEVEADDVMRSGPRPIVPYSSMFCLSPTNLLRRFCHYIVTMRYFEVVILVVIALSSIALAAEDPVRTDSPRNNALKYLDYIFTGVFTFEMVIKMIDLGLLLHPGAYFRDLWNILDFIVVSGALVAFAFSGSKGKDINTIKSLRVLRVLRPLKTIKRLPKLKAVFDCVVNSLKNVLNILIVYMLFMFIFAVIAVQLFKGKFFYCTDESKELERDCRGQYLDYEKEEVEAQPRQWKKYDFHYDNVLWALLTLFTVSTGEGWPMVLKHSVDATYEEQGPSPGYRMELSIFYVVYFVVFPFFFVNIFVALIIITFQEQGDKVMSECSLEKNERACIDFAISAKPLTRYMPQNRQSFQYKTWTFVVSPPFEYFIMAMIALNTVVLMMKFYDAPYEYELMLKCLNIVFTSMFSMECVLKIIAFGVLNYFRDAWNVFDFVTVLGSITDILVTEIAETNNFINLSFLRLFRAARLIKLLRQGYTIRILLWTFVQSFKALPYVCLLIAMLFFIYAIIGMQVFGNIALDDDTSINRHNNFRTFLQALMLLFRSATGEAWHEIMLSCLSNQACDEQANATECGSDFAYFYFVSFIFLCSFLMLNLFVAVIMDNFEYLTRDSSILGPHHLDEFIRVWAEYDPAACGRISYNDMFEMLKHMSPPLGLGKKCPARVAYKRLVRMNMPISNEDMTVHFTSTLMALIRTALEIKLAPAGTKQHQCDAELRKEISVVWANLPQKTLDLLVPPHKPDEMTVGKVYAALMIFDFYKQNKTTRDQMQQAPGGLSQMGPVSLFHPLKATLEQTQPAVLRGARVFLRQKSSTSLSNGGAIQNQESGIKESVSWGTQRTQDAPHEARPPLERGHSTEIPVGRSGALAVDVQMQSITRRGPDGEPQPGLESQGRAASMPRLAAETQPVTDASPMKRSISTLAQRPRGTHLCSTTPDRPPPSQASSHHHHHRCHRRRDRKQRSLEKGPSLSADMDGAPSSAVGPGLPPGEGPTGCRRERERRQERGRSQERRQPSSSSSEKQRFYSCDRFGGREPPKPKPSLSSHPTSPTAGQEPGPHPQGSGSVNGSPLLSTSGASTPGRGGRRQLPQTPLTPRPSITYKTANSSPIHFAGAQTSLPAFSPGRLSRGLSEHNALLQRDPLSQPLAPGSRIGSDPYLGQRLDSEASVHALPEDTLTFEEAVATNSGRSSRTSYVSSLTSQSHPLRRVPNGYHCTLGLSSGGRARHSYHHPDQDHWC
T2 sequence (Q02410 whole entry): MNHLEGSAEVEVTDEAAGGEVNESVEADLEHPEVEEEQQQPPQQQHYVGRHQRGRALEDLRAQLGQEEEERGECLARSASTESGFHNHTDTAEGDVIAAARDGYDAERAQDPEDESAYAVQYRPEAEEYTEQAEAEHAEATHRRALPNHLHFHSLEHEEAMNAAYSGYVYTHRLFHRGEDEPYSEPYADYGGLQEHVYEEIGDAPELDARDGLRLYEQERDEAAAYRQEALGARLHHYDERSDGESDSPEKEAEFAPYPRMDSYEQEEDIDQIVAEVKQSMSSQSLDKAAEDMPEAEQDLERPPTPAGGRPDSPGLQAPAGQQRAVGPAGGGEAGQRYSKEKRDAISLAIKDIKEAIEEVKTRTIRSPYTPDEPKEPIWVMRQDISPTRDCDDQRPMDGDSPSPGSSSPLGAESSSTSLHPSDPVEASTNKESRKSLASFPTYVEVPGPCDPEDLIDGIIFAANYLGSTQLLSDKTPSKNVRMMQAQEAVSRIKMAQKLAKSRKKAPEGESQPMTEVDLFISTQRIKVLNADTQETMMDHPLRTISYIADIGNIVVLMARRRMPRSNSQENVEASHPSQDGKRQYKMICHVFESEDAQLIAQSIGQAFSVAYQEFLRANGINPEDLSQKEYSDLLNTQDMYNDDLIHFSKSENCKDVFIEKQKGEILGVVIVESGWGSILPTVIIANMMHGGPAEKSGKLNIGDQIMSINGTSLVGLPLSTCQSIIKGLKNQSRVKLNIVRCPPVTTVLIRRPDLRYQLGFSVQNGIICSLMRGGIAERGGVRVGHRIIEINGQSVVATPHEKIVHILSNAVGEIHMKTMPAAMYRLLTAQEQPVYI

[4] = biological target: T2, Voltage-gated N-type calcium channel alpha-1B subunit/Amyloid beta A4 precursor protein-binding family A member 1; assay type: protein assay; remark: listed apart in the source
[5] = biological target: Induced myeloid leukemia cell differentiation protein Mcl-1 (Homo sapiens, UniProt Q07820); assay type: functional
Chain of Induced myeloid leukemia cell differentiation protein Mcl-1 (Q07820 whole entry): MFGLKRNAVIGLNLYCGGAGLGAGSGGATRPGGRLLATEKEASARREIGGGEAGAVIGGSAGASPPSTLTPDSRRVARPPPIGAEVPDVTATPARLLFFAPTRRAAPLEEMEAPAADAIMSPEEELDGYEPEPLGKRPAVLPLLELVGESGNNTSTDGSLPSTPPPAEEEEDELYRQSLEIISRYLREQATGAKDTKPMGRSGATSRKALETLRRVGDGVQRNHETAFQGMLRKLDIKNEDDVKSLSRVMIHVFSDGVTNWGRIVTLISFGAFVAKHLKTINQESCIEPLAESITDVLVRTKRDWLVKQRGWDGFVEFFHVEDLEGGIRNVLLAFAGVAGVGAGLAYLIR

[6] = biological target: G-protein coupled receptor 55 (Homo sapiens, UniProt Q9Y2T6); experiment: selective activators of receptor GPR55 – imaging, U2OS cells, beta-arrestin-GFP redistribution, primary screen (AID 1961); assay type: functional
Chain of G-protein coupled receptor 55 (Q9Y2T6 whole entry): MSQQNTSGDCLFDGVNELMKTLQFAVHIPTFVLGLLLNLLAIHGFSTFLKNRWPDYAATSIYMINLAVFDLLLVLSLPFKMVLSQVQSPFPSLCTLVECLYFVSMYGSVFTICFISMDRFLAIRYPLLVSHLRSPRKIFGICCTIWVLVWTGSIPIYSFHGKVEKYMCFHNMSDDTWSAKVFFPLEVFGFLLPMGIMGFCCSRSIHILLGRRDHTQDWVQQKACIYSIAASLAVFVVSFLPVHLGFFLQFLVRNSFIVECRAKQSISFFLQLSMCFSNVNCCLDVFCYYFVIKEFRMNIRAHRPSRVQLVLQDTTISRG

[7] = biological target: Prothrombin (Homo sapiens, UniProt P00734); experiment: Thrombin 1536 HTS Dose Response Confirmation. [Related pubchem assays: 1046 (Thrombin 1536 HTS; hits were confirmed in this assay)]; assay type: functional
[8] = HEK-293T cell viability reduction – luminescence, B-cell screen hits, cytotoxicity control for BCR NF-kB inhibitor project, dose response (AID 489021); assay type: functional, cell-based;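 also: HEK-293T cells carrying an NF-kB luciferase reporter; cells exposed to compound for about 14 hours before viability readout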
[9] = biological target: T3, Replicative DNA helicase DnaB (Mycobacterium tuberculosis, UniProt P9WMR3); experiment: DnaB intein splicing inhibitors, dose response, biochemical, cell-free fluorescence (AID 449749); assay type: functional
T3 sequence (P9WMR3 whole entry): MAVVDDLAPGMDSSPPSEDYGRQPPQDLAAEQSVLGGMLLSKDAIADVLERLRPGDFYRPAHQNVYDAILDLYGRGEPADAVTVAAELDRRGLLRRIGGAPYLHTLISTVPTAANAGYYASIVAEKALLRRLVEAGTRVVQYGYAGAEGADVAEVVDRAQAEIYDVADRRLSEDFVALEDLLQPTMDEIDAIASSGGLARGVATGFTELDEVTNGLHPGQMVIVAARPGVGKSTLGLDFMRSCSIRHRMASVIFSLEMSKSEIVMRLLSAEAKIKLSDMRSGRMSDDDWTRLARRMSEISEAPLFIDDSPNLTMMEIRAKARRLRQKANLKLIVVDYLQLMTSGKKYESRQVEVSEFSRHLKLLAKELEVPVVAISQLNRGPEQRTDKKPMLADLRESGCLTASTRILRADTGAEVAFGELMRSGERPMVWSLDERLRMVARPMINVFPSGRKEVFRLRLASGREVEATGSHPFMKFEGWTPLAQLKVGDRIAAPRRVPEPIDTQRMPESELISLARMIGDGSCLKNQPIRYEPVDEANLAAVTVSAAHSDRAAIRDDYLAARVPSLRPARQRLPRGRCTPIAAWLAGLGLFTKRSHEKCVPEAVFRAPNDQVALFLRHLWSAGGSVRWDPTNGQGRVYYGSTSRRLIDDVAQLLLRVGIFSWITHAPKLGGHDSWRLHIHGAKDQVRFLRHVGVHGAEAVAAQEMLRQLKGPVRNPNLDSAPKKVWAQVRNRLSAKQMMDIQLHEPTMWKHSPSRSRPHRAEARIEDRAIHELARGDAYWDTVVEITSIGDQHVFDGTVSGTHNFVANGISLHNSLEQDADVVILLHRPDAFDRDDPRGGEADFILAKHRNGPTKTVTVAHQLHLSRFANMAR

[10] = biological target: T4, Protein RecA (Mycobacterium tuberculosis, UniProt P9WHJ3); experiment: Fluorescence Cell-Free Homogeneous Dose Retest to Identify Inhibitors of RecA-Intein Splicing Activity. [Related pubchem assays (depositor defined):AID2097, AID2223, AID489010, AID492950]; assay type: functional
T4 sequence (P9WHJ3 whole entry): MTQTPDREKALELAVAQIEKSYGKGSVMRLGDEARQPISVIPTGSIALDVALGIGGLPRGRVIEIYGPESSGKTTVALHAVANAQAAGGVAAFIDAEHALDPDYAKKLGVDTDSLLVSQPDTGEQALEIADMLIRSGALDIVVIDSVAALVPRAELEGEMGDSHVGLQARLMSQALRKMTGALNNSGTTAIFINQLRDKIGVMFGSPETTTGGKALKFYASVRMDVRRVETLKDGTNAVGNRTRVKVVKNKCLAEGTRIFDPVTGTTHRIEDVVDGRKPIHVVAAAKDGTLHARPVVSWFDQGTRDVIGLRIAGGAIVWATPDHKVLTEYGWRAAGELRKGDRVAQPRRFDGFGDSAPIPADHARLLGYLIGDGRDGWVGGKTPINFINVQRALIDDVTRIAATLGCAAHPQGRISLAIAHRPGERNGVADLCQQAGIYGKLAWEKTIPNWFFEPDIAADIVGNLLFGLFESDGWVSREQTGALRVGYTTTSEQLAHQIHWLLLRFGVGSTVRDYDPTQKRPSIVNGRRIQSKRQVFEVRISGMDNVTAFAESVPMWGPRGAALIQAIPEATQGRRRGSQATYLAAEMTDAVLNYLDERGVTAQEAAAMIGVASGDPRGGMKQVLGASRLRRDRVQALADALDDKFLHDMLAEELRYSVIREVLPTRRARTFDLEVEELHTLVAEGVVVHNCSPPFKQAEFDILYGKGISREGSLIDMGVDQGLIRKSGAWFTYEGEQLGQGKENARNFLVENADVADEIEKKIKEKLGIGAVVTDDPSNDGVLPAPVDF

[11] = THP-1 cell cytotoxicity, dose response, cytotoxicity control for non-replicating M. tuberculosis project (AID 489025); assay type: functional
[12] = HepG2 cell cytotoxicity, dose response, cytotoxicity control for non-replicating M. tuberculosis project (AID 489018); assay type: functional; settings: Mycobacterium tuberculosis
[13] = cells; assay type: functional
[14] = viability loss of HPDE-C7K cells – cell-based, fluorescence, HTS, primary screen (AID 431); assay type: functional; settings: Homo sapiens
[15] = test system: BJ; experiment: cells; assay type: functional, cell-based; settings: Homo sapiens
[16] = DRD fibroblast viability loss – cell-based, non-viral oncogenic, luminescence, dose response (AID 1934); assay type: functional; settings: Homo sapiens
[17] = test system: BJ; experiment: BJ-TERT-LT-ST fibroblast viability loss – cell-based, RAS-independent, luminescence, dose response (AID 1935); assay type: functional; settings: Homo sapiens;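 also: BJ fibroblasts immortalized with TERT plus LT and ST oncogenes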
[18] = Vero E6 cell cytotoxicity, dose response, cytotoxicity control for non-replicating M. tuberculosis project, secondary assay (AID 492998); assay type: functional, VeroE6; settings: Vero C1008
[19] = test system: BJ; experiment: BJ-TERT fibroblast viability loss – cell-based, RAS-independent, luminescence, dose response (AID 1933); assay type: functional; settings: Homo sapiens
[20] = HPDE-C7 pancreatic duct cell viability loss – fluorescence, HTS (AID 430); assay type: functional, cell-based; settings: Homo sapiens
[21] = viability of HCT116 lacking mutant beta-catenin – cell-based, human colon tumor, dose response (AID 1045); assay type: functional;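 also: HCT116 colon tumor cells with beta catenin knocked out; cells exposed to compound for 60 hours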
[22] = viability of PTEN-deleted HCT116 cells – cell-based, HCT116 PTEN knockout, dose response (AID 1047); assay type: functional;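 also: HCT116 colon tumor cells with PTEN knocked out; cells exposed to compound for 60 hours before readout; potency for loss of cell viability measured by luminescence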
[23] = biological target: T5, Ubiquitin-conjugating enzyme E2 N (Homo sapiens, UniProt P61088); assay type: functional
T5 sequence (P61088 whole entry): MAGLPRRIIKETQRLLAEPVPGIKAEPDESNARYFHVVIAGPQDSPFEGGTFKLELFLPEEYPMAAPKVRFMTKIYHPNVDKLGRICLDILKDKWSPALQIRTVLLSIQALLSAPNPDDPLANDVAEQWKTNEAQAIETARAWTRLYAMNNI

[24] = biological target: T6, Bcl-2-related protein A1 (Mus musculus, UniProt Q07440); assay type: functional;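 also: confirmatory dose–response counterscreen on Bfl-1, used to check hits from a UBC13 polyubiquitin inhibitor campaign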
T6 sequence (Q07440 whole entry): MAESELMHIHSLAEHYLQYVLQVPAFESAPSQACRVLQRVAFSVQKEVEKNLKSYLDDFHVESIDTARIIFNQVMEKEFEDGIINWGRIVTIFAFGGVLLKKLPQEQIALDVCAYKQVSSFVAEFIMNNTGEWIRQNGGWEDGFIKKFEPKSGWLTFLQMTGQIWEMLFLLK

[25] = biological target: T5, Ubiquitin-conjugating enzyme E2 N; assay type: functional; remark: listed apart in the source
[26] = biological target: Glyceraldehyde-3-phosphate dehydrogenase (Homo sapiens, UniProt P04406)
Chain of Glyceraldehyde-3-phosphate dehydrogenase (P04406 whole entry): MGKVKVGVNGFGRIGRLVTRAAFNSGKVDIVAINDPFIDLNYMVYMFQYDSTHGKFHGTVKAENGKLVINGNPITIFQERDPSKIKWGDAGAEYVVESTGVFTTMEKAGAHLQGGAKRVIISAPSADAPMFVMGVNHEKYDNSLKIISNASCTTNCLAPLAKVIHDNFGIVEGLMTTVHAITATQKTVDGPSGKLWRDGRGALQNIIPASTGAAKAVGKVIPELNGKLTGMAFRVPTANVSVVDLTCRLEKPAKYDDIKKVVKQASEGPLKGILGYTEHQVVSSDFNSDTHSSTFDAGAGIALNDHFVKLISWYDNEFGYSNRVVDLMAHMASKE

[27] = biological target: T7, Alkaline phosphatase, tissue-nonspecific isozyme (Homo sapiens, UniProt P05186); experiment: potency against alkaline phosphatase TNAP – biochemical, luminescent, dose response, SAR follow-up (AID 1056)
T7 sequence (P05186 whole entry): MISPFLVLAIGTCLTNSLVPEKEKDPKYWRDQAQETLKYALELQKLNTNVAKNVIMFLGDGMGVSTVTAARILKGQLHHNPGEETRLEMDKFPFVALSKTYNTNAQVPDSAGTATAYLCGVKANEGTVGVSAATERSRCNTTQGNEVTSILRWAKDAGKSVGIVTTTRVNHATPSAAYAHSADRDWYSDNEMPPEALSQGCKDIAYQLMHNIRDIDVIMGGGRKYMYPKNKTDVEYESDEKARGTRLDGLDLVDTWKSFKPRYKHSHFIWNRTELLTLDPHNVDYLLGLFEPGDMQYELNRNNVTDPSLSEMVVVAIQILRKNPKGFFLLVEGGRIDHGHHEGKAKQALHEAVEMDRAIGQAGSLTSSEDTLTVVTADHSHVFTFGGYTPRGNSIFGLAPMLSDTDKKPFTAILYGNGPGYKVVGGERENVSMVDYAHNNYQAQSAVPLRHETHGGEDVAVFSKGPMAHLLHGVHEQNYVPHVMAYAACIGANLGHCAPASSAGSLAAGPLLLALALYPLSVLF

In the case of CC(C)(C)OC(=O)N1CCC(NC(=O)c2[nH]cnc2C(=O)N[C@@H](Cc2ccccc2)C(=O)OCc2ccccc2)CC1, the EC50 [1] is reported as 32.2 µM (inactive).
For CC1CCN(c2ccc(C(=O)O)cc2N)CC1, the IC50 [2] was 30.5 µM (active).
With CCC(=O)Nc1ccc(Nc2nc(Cl)nc(Nc3ccc(NC(=O)CC)cc3)n2)cc1 the IC50 [3] was > 50 µM (inactive) and the IC50 [4] was 12.8 µM (active).
With CCN(CC)C(=O)CC(c1cc(OC)c(OC)c(OC)c1)c1c(OC)cc(OC)c2c(-c3ccccc3)cc(=O)oc12 (centres undefined) the IC50 [5] was 5.26 µM (active) and the EC50 [6] was 1.31 µM (active).
For Nc1nc(-c2ccco2)nn1C(=O)CCc1ccccc1, the IC50 [2] was > 100 µM (inactive) and the IC50 [7] was 0.0191 µM (active).
For COc1ccc(OC)c(C2CC(=O)Nc3cc(OC)c(OC)c(OC)c32)c1 (centres undefined), the IC50 [8] was > 80 µM (inactive).
With CCN(c1ccc(N/C=C2/C(=O)N(Cc3ccc(OC)cc3)C(=O)c3ccccc32)cc1)C(C)C the EC50 [6] was 2.01 µM (active).
In the case of COc1ccc(/C=C2/SC(=S)N(CCCC(=O)Nc3cccc(O)c3)C2=O)cc1, the AC50 [9] is reported as > 380 µM (inactive), the EC50 [10] is reported as > 380 µM (inactive) and the IC50 [8] is reported as 55.8 µM (inactive).
In the case of CCCc1cc(NCCCn2ccnc2)n2nc(C)c(-c3ccccc3)c2n1, the CC50 [11] is reported as 36.2 µM (active), the CC50 [12] is reported as > 20 µM (active) and the IC50 [13] is reported as 29.1 µM (active).
In the case of O=C1CSC(=S)N1Cc1cccnc1, the EC50 [14] is reported as 3.72 µM (active), the EC50 [15] is reported as 21.1 µM (active) and the EC50 [16] is reported as 9.9 µM (active). The CC50 [11] was 3.69 µM (active), the EC50 [17] was > 150 µM (inconclusive) and the CC50 [18] was 4.93 µM (active). The IC50 [13] was 13.2 µM (active), the EC50 [19] was 5.09 µM (active) and the EC50 [20] was 5.21 µM (active).
In the case of CCc1cccc(CC)c1-n1c(SCC(=O)N2CCc3ccccc3C2)nnc1-c1cccnc1, the EC50 [1] is reported as 4.16 µM (active).
For CC(=O)Nc1cccc(C(=O)/C=C/c2ccc(Br)cc2)c1, the EC50 [21] was 3.18 µM (active), the EC50 [1] was 13.3 µM (active) and the EC50 [22] was 3.77 µM (active).
In the case of CCOc1ccc(N(C(=O)c2snc(C(N)=O)c2N)C(C(=O)NCC2CCCO2)c2c[nH]c3ccccc23)cc1 (centres undefined), the IC50 [23] is reported as 11.1 µM (active), the IC50 [24] is reported as > 20 µM (inactive) and the IC50 [25] is reported as 5.73 µM (active).
With COC(=O)c1cc(-c2ccc(F)cc2F)[nH]n1 the IC50 [26] was > 10 µM (inconclusive) and the IC50 [27] was 0.192 µM (active).
For CCOC(=O)N1CCN(C(=O)c2ccc3c(c2)N(Cc2cc(C)ccc2C)C(=O)c2ccccc2[S+]3[O-])CC1 (centres undefined), the EC50 [6] was 4.83 µM (active).
For COC(=O)c1ccc(C(=O)NC2CC(C)(C)Cc3c2cnn3-c2ccc(F)cc2)nc1 (centres undefined), the CC50 [11] was 16.8 µM (active), the CC50 [18] was 12.2 µM (active) and the CC50 [12] was > 20 µM (active). The IC50 [13] was 6.8 µM (active).
